We go through 1 compound from ChEMBL document CHEMBL3886984, “Tetrahydroimidazo(1,5-D)[1,4]oxazepine derivative” (2016).

The target in the experiment is Metabotropic glutamate receptor 2 (Homo sapiens, UniProt Q14416). The experiment in a line: [35S]GTPgammaS Binding Assay: The frozen cell membrane fraction prepared as described above was thawed before use, and the resultant was diluted with a buffer for a binding assay (final concentrations: 20 mM HEPES, 100 mM NaCl, 1 mM MgCl2, 3 uM GDP, 300 ug/mL saponin, 0.1% BSA). The compound of each example was added to a cell membrane fraction containing 1.8 to 3 ug/assay of membrane protein on a plate, followed by incubation at room temperature for 30 minutes. Thereafter, with glutamic acid (in a final concentration of 10 uM) added thereto, incubation was performed at room temperature for 15 minutes, and thereafter, [35S]GTPγS (in a final concentration of 0.8 kBq) and 588 ug WGA-SPA beads were added thereto, followed by incubation at room temperature for 1 hour. After the incubation, the plate was subjected to the centrifugal separation at 2,500 rpm and room temperature, and then, membrane cell binding radioactivity was measured with a top count. A [35S]GTPγS binding amount obtained in the presence of glutamic acid was defined as specific binding. On the basis of ratios of inhibiting the specific binding at various concentrations of the compounds of the respective examples, inhibition curves were obtained. […]. The experiment is classed as functional.
Chain of Metabotropic glutamate receptor 2 (Q14416 whole entry): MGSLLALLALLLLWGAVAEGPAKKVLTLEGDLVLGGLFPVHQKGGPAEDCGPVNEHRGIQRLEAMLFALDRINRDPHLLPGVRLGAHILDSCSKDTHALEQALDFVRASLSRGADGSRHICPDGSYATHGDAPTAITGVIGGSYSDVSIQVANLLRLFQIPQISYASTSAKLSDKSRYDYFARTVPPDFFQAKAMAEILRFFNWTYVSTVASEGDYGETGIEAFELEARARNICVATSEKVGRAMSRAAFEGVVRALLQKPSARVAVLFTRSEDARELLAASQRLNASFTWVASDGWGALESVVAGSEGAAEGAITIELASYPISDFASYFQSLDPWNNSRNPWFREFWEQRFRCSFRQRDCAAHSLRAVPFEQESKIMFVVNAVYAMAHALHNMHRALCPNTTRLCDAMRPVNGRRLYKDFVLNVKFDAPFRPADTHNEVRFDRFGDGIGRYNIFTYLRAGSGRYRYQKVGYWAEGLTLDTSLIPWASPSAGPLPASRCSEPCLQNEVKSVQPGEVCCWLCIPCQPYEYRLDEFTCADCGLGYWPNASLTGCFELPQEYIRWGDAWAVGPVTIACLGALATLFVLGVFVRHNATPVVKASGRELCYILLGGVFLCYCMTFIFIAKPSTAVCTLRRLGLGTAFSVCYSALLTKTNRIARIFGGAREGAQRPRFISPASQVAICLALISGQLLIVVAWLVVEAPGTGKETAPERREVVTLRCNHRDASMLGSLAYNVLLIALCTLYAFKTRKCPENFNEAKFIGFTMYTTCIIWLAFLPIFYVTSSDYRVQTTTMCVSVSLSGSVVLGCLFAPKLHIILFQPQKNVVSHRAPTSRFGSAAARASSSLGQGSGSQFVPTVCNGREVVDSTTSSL

Take `CCc1ccc(-c2nc(-c3cc(C)nc(C)c3)c3n2C[C@@H](C)OCC3)cc1OC`: the IC50 turned out to be 4.2 nM.

Broadly, the IC50 is the concentration that gives 50% inhibition.
